Assay results taken from patent publication US11583511B2, “Maresins for use in the treatment of CNS injuries” (UNIVERSITAT AUTONOMA DE BARCELONA, priority 2017, dated 2023).

What was measured:
[1] = system: spinal cord contusion injury; assay: Histology of secondary tissue damage after SCI; format: in vivo, C57BI/6 mice; conditions: 28 days post-injury, vs saline
Protocol: (§1) All surgical procedures were approved by the Universitat Autònoma de Barcelona Animal Care Committee and followed the guidelines of the European Commission on Animal Care, and the methods for each procedure were carried out in accordance with the approved guidelines. 142 Adult (8 to 10 weeks old) female C57BI/6 mice (Charles River) were anesthetized with ketamine:xylazine (90:10 mg/kg). After performing a laminectomy at the 11th thoracic vertebrae, the exposed spinal cord was contused using the Infinite Horizon Impactor device (Precision Scientific Instrumentation, Lexington, Ky.). Injuries were made using a force of 60 kdynes and tissue displacement ranging between 500-700 μm as reported earlier (Coll-Miro et al., 2016).
(§2) One hour after spinal cord injury, 1 μg of MaR1 (7S,14S-dihydroxy-4Z,8E,10E,12Z,16Z, 19Z-docosahexaenoic acid; Cayman Chemical) was injected intravenously in 100 μl of sterile saline, and then repeated daily thereafter until day 7. Control mice were injected with an equal volume of sterile saline following the same injection protocol. Precautions with regards to the handling of lipid mediators to prevent inactivity due to oxygenation were implemented. The MaR1 dosage was chosen accordingly to be above levels i) of approved MaR1 bioactivity in experimental disease models (Serhan et al., 2015) and ii) above SPM dosages sufficient to exert bioactivity in the CNS with intact and closed blood brain barrier (Marcheselli et al., 2003; Svensson et al., 2007).
At 28 days post-injury, mice were perfused with 4% paraformaldehyde in 0.1M-phosphate buffer (PB). A 5 mm length of spinal cord containing the lesion site was removed, cryoprotected with 30% sucrose in 0.1M PB at 4° C., and 10 series of 10 μm thick section were picked up on glass slides. Adjacent sections on the same slide were therefore 100 μm apart. For quantification of myelin area content in the spinal cord analyses, sections were stained with Luxol Fast Blue (Sigma). […]
The epicenter of the injection or contusion injury impact was determined for each mouse spinal cord by localizing the tissue section with the greatest damage using LFB stained section. Myelin content after SCI was calculated by delineating the are of LFB stained tissue. Neuronal survival was assessed by counting the number of NeuN^+ cells in the ventral horns at the injury epicenter and at rostral and caudal areas. Axonal sparing was calculated by counting the number of axons in the dorsal column at the injury epicenter, the region of most pronounced damage. […] All quantifications were performed blinded to the experimental groups with the help of the ImageJ image analysis software.

[2] = system: macrophages and microglia (Ly6C, iNOS, Arg1); assay: Flow cytometry of macrophage and microglia phenotype after SCI; format: in vivo, C57BI/6 mice
Protocol: as §1, §2
(§3) Immune cells from the laminectomized and injured spinal cord were analyzed by flow cytometry at 1, 3, 7, 14, 21 and 28 days post-injury as described previously to study the dynamics of immune cell in spinal cord injury as described previously (Santos-Nogueira et al., 2015; Coll-Miro et al., 2016; Francos-Quijorna et al., 2016). Similarly, spinal cord from mice treated with MaR1 or saline were also harvested at day 1, 3 and 7 post-lesion. Briefly, spinal cords were cut in little pieces and passed through a cell strainer of 70 μm (BD falcon) and the cell suspension was centrifuged twice at 300 g for 10 minutes at 4° C. After cell counts, samples were divided, and cells alone and isotype-matched control samples were generated to control for nonspecific binding of antibodies and for auto-fluorescence. The following antibodies from eBioscience were used at 1:250 concentration: CD45-PerCP, CD11b-PE-Cy7, Ly6C-FITC, Ly6G-PE, Gr1-FITC, F4/80-APC or PE, CD3-FITC, CD4-APC, CD8-APC, CD19-PE, CD206-FITC, CD16/32-PE. After 30 min of incubation with combinations of antibodies at 4° C., cells were then fixed in 1% paraformaldehyde. For intracellular staining, cells were permeabilized with Permeabilization Wash Buffer (Biolegend), incubated with unconjugated rabbit antibodies against iNOS (1:200 Abcam), and goat antibodies against Arg1 (1:200; Santa Cruz) for 30 minutes, followed by staining with Alexa488 or Alexa647 conjugated donkey secondary antibodies against rabbit or goat (1:500 Molecular Probes) for 30 min. Finally, samples were washed and fixed in 1% paraformaldehyde. To perform the analysis, cells were first gated for CD45 to ensure that only infiltrating leukocytes and resident microglia are selected. Then, the following combination of markers were used to identify: microglia (CD45^low, CD11b^+, F4/80^+); macrophages (CD45^high, CD11b^+, F4/80^+); neutrophils (CD45^high, CD11b^+, F4/80^−, Gr1^high); CD4 T-Cells (CD45^+, CD11b^−, CD3^+, CD4^+); CD8 T Cells (CD45^+, CD11b, CD3^+, CD8^+); B cell (CD45^+, CD11b^−, CD3^−, CD19^+). To study the phenotype of microglia and macrophages, these cells were further differentiated based on Ly6C, CD16/32, iNOS, CD206 and Arg1 expression (Coll-Miro et al., 2016; Francos-Quijorna et al., 2016). Analysis of inflammatory cell kinetics at the lesion site was conducted applying objective and quantifiable measures of resolution dynamics as described previously (Pruss et al., 2011). […]

[3] = system: spinal cord contusion injury; assay: Functional assessment of locomotor recovery after SCI (BMS, DigiGait, treadmill); format: in vivo, C57BI/6 mice
Protocol: as §1, §2
Locomotor recovery was evaluated at 1, 3, 5, 7, 10, 14, 21 and 28 dpi in an open-field test using the nine-point Basso Mouse Scale (BMS) (Basso et al., 2006), which was specifically developed for locomotor testing after contusion injuries in mice. The BMS analysis of hindlimb movements and coordination was performed by two independent assessors blinded for the treatment groups (MaR1 vs saline) and the consensus score taken. […] Moreover, the highest locomotion speed that each mouse was to able locomote for at least 5 seconds was also recorded on the DigiGait treadmill belt. […]

[4] = system: neutrophils, macrophages and microglia in the contused spinal cord; assay: Flow cytometry of immune cell counts in contused spinal cord after MaR1 treatment; format: in vivo, C57BI/6 mice; conditions: vs saline
Protocol: as §1, §2, §3

[5] = system: STAT, MAPK, NF-κB and PI3K/Akt signaling; assay: Western blotting of inflammatory signaling pathways in contused spinal cord; format: in vivo, C57BI/6 mice; conditions: vs saline
Protocol: as §1, §2
Samples used for Luminex assay, were also used to for western blotting. Protein samples (30 μg) were separated by electrophoresis on a 10-15% polyacrylamide gel and transferred onto PVDF membranes (Millipore). The membranes were incubated overnight at 4° C. with rabbit antibodies against phospho NF-kB p65 (1:1000; Cell Signaling), against the phosphorylated form of STAT1 (1:500; Cell Signaling), STAT3 (1:500; Cell Signaling), STAT5 (1:500; Cell Signaling) and STAT6 (1:500; Cell Signaling), JNK (1:500; Santa Cruz), ERK1/2 (1:1000; Cell Signaling), p38 (1:1000; Cell Signaling) and AKT (1:1000; Cell Signaling). Bands were detected using Chemiluminescence (Immobilon Western Chemiluminescence HRP reagent, Millipore) and data quantified by densitometry using Workflow v3 software in a Chemidoc apparatus (Millipore). ß-actin (1:10.000; Sigma Aldrich) was used to ensure equal loading of samples.

[6] = system: macrophages (CD45high, CD11b+, F4/80+); assay: Efferocytosis: neutrophil marker Ly6G inside macrophages after SCI; format: in vivo, C57BI/6 mice; conditions: 7 days post-lesion; vs saline
Protocol: as §1, with “Injuries were made using a force of 60 kdynes and tissue displacement ranging between 500-700 μm as reported earlier (Coll-Miro et al., 2016).” left out
Immune cells from the laminectomized and injured spinal cord were analyzed by flow cytometry at 1, 3, 7, 14, 21 and 28 days post-injury as described previously to study the dynamics of immune cell in spinal cord injury as described previously (Santos-Nogueira et al., 2015; Coll-Miro et al., 2016; Francos-Quijorna et al., 2016). […] After cell counts, samples were divided, and cells alone and isotype-matched control samples were generated to control for nonspecific binding of antibodies and for auto-fluorescence. […] Analysis of inflammatory cell kinetics at the lesion site was conducted applying objective and quantifiable measures of resolution dynamics as described previously (Pruss et al., 2011). […]

[7] = system: cytokines and chemokines in the contused spinal cord; assay: Cytokine protein expression in contused spinal cord (Luminex); format: in vivo, C57BI/6 mice
Protocol: as §1, §2
Mice treated with saline or MaR1 were perfused with sterile saline and a 5 mm length of spinal cord centered on the lesion was collected at 12 and 24 h after contusion injury and snap-frozen. Spinal cords were homogenized and protein concentration was determined using the DC Protein Assay (Bio-Rad). Samples were concentrated to 4 μg/μl using MicroCon centrifugation filters (Millipore) to ensure equal amounts of protein. Low concentrations of cytokines in the sample result in binding to the filters whereas high concentrations of protein sustain less losses. The protein levels of 32 cytokines and chemokines were then analyzed using the Milliplex MAP Mouse Cytokine/Chemokine magnetic bead panel (Millipore) on a Luminex (Millipore) as per manufacturers' protocol (Francos-Quijorna et al., 2016).

human macrophages = conditions: 1 nM concentration; cited from earlier work
[8] = spinal cord tissue 24 hours after SCI
[9] = contused spinal cord, 24 h after SCI, MaR1 1 μg i.v., mean ± SEM

CC/C=C\C/C=C\C[C@H](O)\C=C/C=C/C=C/[C@@H](O)C/C=C\CCC(=O)O [MaR1, 7S,14S-dihydroxy-4Z,8E,10E,12Z,16Z, 19Z-docosahexaenoic acid]
neuronal survival in the ventral horn ([1]; caudal regions to the injury epicenter): improved | myelin content (LFB) ([1]; injury epicenter and 200 μm rostral and caudal): increased | axonal sparing (NF+) in the dorsal columns ([1]; injury epicenter): enhanced | demyelination (NF/MBP+) in the dorsal columns ([1]; injury epicenter): reduced | percent of Ly6Chigh microglia ([2]; 7 days after SCI): 10.6%±1.1 | ratio LyC6low/LyC6high macrophages ([2]; 7 days after SCI, p=0.0036 vs saline): 3.73±0.26 | reduction of pro-inflammatory macrophages (Ly6Chigh) ([2]; 7 days after SCI, vs saline): ~50% | increase of Arg-1 expression in macrophages ([2]; 7 days post injury, did not reach statistical significance): ~2 fold | iNOS expression in microglia ([2]; 7 days post injury, not statistically significant): tended to reduce | iNOS expression in macrophages ([2]; 7 days post injury, vs saline): significantly reduced | BMS score ([3]; 28 dpi, nine-point Basso Mouse Scale, 1 μg MaR1 i.v. daily until day 7): 4.58±0.22 | DigiGait gait symmetry and stance/width stepping variability ([3]; day 28 post-injury, vs saline): improved | speed of locomotion on the treadmill ([3]; day 28 post-injury, vs saline): significantly faster | clearance of neutrophils from the contused spinal cord (Ri and T50) ([4]; 1 μg MaR1 i.v. daily for 7 days): accelerated | entrance of blood-borne macrophages into the contused spinal cord ([4]; day 1): not different | neutrophil counts in contused spinal cord ([4]; day 1 post-injury, 1 μg MaR1 i.v. daily from 1 hour after SCI): unaltered | macrophage counts in the contused spinal cord ([4]; day 3 post-injury, not significant): tended to be reduced | reduction of neutrophil counts in the injured spinal cord ([4]; day 7, 1 μg MaR1 i.v. daily): ~50% | macrophage accumulation in the lesioned spinal cord ([4]; day 7 post-lesion): significantly reduced | microglial numbers in the contused spinal cord ([4]; first week following contusion injury): did not attenuate | ERK1/2 activation ([5]; 24 hours post-injury): attenuated | JKN activation ([5]; 24 hours post-injury): remained unaltered | STAT1 activation ([5]; 24 hours post-injury): attenuated | STAT3 activation ([5]; 24 hours post-injury): attenuated | STAT5 activation ([5]; 24 hours post-injury): attenuated | STAT6 activation ([5]; 24 hours post-injury): remained unaltered | p38 activation ([5]; 24 hours post-injury): attenuated | pAkt level [5, 8]: not affected | pP65 level [5, 8]: not affected | increase of neutrophil marker Ly6G inside macrophages (neutrophil phagocytosis) [6]: ~2 fold | protein levels of the anti inflammatory cytokine IL-10 ([7]; after SCI, vs saline): did not reduce | CCL3 protein level [7, 9]: 13.3 ± 1.18 | CCL4 protein level [7, 9]: 17.7 ± 1.46 | CSF3 protein level [7, 9]: 741 ± 118 | CXCL1 protein level [7, 9]: 87.5 ± 21.3 | CXCL2 protein level [7, 9]: 41.4 ± 7.50 | IL-6 protein level [7, 9]: 291 ± 56.7 | IL-4 protein levels ([7]; injured spinal cord, both groups): undetected | efferocytosis by human macrophages compared with RvD1 (human macrophages): greater efferocytosis
